Usually IC50 stands for the concentration at which inhibition is half-maximal.

Calls of active or inactive are those of the source. No cut-off for these calls is given here. Where only a bound is given, the exact number is not on record here.

The source of these data is ChEMBL document CHEMBL6109156, “Discovery of Dual PD-L1/HDAC3 Inhibitors for Tumor Immunotherapy” (J Med Chem, 2025).

Data set [1] deals with T1, Programmed cell death protein 1/Programmed cell death 1 ligand 1 (Homo sapiens, UniProt Q9NZQ7). Nature of the data set: Inhibition of PD-1/PD-L1 (unknown origin) interaction assessed as inhibition rate at 1 uM by HTRF assay relative to control. In kind it is protein-complex assay. (In general: In TR-FRET formats the signal depends on donor and acceptor labels being close together.)
T1 sequence (Q15116 whole entry): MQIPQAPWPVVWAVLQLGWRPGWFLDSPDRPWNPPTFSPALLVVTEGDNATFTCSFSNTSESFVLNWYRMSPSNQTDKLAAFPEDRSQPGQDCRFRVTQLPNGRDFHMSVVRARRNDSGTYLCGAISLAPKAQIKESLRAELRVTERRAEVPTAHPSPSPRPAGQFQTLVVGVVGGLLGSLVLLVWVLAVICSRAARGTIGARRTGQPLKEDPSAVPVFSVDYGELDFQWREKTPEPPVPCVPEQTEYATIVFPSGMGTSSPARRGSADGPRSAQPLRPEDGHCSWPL
T1 sequence (Q9NZQ7 whole entry): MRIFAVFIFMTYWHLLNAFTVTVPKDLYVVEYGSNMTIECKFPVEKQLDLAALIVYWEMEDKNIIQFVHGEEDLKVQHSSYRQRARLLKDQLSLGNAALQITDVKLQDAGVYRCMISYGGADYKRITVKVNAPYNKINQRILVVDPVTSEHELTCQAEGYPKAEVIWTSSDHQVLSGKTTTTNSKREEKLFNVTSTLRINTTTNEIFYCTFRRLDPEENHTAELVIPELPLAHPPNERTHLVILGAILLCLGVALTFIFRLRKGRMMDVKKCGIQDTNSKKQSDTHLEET

The target in data set [2] is T1, Programmed cell death protein 1/Programmed cell death 1 ligand 1. Nature of the data set: Inhibition of PD-1/PD-L1 (unknown origin) interaction assessed as inhibition rate by HTRF assay. It is filed as protein-complex assay.
Data set [3] has as its target Histone deacetylase 3 (Homo sapiens, UniProt O15379). Briefly: Inhibition of human recombinant HDAC3 using Ac-Leu-Gly-Lys (Ac)-AMC as substrate preincubated for 10 mins followed by substrate addition and measured after 45 mins by TECAN microtiter plate reader analysis.
Data set [4] has as its system B16-F10. Briefly: Antiproliferative activity against mouse B16-F10 cells assessed as cell growth inhibition incubated for 48 hrs by MTT assay. As to conditions: B16-F10, 48 h. It is filed as functional, cell-based. A general note: Tetrazolium assays rely on reduction of a dye to a coloured formazan, in cell work by metabolically active cells.
Data set [5] has as its system A-375. Briefly: Antiproliferative activity against human A-375 cells assessed as cell growth inhibition incubated for 48 hrs by MTT assay. It is filed as functional, cell-based. The note with it: A-375, 48 h.
In data set [6] the test system is HepG2. Nature of the data set: Antiproliferative activity against human HepG2 cells assessed as cell growth inhibition incubated for 48 hrs by MTT assay. In kind it is functional, cell-based. The note with it: HepG2, 48 h.
In data set [7] the test system is 4T1. Briefly: Antiproliferative activity against mouse 4T1 cells assessed as cell growth inhibition incubated for 48 hrs by MTT assay. In kind it is functional, cell-based. As to conditions: 4T1, 48 h.
The subject of data set [8] is MDA-MB-231. Nature of the data set: Antiproliferative activity against human MDA-MB-231 cells assessed as cell growth inhibition incubated for 48 hrs by MTT assay. In kind it is functional, cell-based. As to conditions: MDA-MB-231, 48 h.
For data set [9], the system named is HCT-116. Briefly: Antiproliferative activity against human HCT-116 cells assessed as cell growth inhibition incubated for 48 hrs by MTT assay. The note with it: HCT-116, 48 h. In kind it is functional, cell-based.
In data set [10] the target is T2, Histone deacetylase 3 (Mus musculus) (UniProt O88895).
T2 sequence (whole entry): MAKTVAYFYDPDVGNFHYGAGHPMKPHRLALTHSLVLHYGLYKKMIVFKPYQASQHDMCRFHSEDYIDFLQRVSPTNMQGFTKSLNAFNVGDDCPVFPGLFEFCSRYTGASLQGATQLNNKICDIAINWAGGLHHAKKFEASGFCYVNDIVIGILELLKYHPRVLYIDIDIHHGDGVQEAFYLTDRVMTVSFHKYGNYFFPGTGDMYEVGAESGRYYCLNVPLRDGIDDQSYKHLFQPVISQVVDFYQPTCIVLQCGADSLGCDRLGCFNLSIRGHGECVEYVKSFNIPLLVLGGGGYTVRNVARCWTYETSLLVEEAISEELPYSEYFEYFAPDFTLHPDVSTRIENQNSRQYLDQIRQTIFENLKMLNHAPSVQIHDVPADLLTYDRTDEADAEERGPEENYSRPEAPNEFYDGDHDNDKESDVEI
Briefly: Inhibition of HDAC3 in mouse B16-F10 cells assessed as upregulation of Ac-H3 level at 3 uM incubated for 24 hrs by Western blotting analysis. In kind it is cell-based. On the technique in general: In western blotting, separated proteins are transferred to a membrane and probed.

In data set [11] the test system is B16-F10. Briefly: Induction of apoptosis in mouse B16-F10 cells assessed as viable cells at 4 uM incubated for 48 hrs by Annexin V-FITC/PI staining based flow cytometry analysis (reference value: 92.3%). In kind it is functional. The note with it: read-out: Activity.
The test system of data set [12] is B16-F10. Nature of the data set: Induction of apoptosis in mouse B16-F10 cells assessed as early apoptotic cells at 4 uM incubated for 48 hrs by Annexin V-FITC/PI staining based flow cytometry analysis (reference value: 0.45 %). In kind it is functional.
Data set [13] concerns B16-F10. Nature of the data set: Induction of apoptosis in mouse B16-F10 cells assessed as late apoptotic cells at 4 uM incubated for 48 hrs by Annexin V-FITC/PI staining based flow cytometry analysis (reference value: 5.02 %). It is filed as functional.
In data set [14] the test system is B16-F10. Briefly: Induction of apoptosis in mouse B16-F10 cells assessed as necrotic cells at 4 uM incubated for 48 hrs by Annexin V-FITC/PI staining based flow cytometry analysis (reference value: 2.24%). It is filed as functional.
In data set [15] the test system is B16-F10. Nature of the data set: Induction of cell cycle arrest in mouse B16-F10 cells assessed as accumulation of cells at G0/G1 phase at 4 uM incubated for 48 hrs by PI staining based flow cytometry analysis (reference value: 70.09%). In kind it is functional.
The test system of data set [16] is B16-F10. Nature of the data set: Induction of cell cycle arrest in mouse B16-F10 cells assessed as accumulation of cells at G2/M phase at 4 uM incubated for 48 hrs by PI staining based flow cytometry analysis (reference value: 5.87%). It is filed as functional.
The test system of data set [17] is B16-F10. Briefly: Induction of cell cycle arrest in mouse B16-F10 cells assessed as accumulation of cells at S phase at 4 uM incubated for 48 hrs by PI staining based flow cytometry analysis (reference value: 24.04%). It is filed as functional.
Data set [18] deals with B16-F10. Nature of the data set: Antitumor activity against mouse B16-F10 cells implanted in C57BL/6J mouse assessed as tumor growth inhibition at 20 mg/kg, ip administered once daily for 9 days. As to conditions: B16-F10, 216 h, time 9 day, read-out: TGI. In kind it is functional.
Data set [19] concerns B16-F10. Nature of the data set: Antitumor activity against mouse B16-F10 cells implanted in C57BL/6J mouse assessed as tumor growth inhibition at 20 mg/kg, ip administered once daily for 9 days in presence of MS-275. It is filed as functional. The note with it: B16-F10, 216 h, time 9 day, read-out: TGI.
The nature of data set [20]: Toxicity in C57BL/6J mouse implanted with mouse B16-F10 cells assessed as body weight loss at 20 mg/kg, ip administered once daily for 9 days. In kind it is organism-based. The note with it: in vivo, 216 h, time 9 day.
The nature of data set [21]: Toxicity in C57BL/6J mouse implanted with mouse B16-F10 cells assessed as body weight loss at 20 mg/kg, ip administered once daily for 5 days in presence of MS-275. In kind it is organism-based. As to conditions: in vivo, 120 h, time 5 day.
Data set [22] can be described thus: Toxicity in C57BL/6J mouse implanted with mouse B16-F10 cells assessed as animal death at 20 mg/kg, ip administered once daily for 5 days in presence of MS-275. It is filed as organism-based. The note with it: in vivo, 120 h, time 5 day.
Data set [23] has as its system B16-F10. Nature of the data set: Immunomodulatory activity in mouse B16-F10 cells implanted in C57BL/6J mouse assessed as percentage of CD3 positive CD8 positive cells in tumor at 20 mg/kg, ip administered once daily for 9 days by flow cytometric analysis (reference value: 0.44 %). As to conditions: time 9 day. In kind it is functional.
The test system of data set [24] is B16-F10. Briefly: Immunomodulatory activity in mouse B16-F10 cells implanted in C57BL/6J mouse assessed as percentage of CD3 positive CD8 positive cells in tumor at 10 mg/kg, ip administered once daily for 9 days in presence of MS-275 by flow cytometric analysis (reference value: 0.44 %). It is filed as functional. As to conditions: time 9 day.
For data set [25], the system named is B16-F10. Nature of the data set: Immunomodulatory activity in mouse B16-F10 cells implanted in C57BL/6J mouse assessed as percentage of CD3 positive CD4 positive cells in tumor at 20 mg/kg, ip administered once daily for 9 days by flow cytometric analysis (reference value: 0.20 %). It is filed as functional. As to conditions: time 9 day.
Data set [26] concerns B16-F10. Briefly: Immunomodulatory activity in mouse B16-F10 cells implanted in C57BL/6J mouse assessed as percentage of CD3 positive CD4 positive cells in tumor at 10 mg/kg, ip administered once daily for 9 days in presence of MS-275 by flow cytometric analysis (reference value: 0.20 %). In kind it is functional. As to conditions: time 9 day.
Data set [27] relates to B16-F10. Nature of the data set: Antitumor activity against mouse B16-F10 cells implanted in C57BL/6J mouse assessed as tumor growth inhibition at 20 mg/kg, ip administered once daily for 9 days in presence of NP19. It is filed as functional. The note with it: B16-F10, 216 h, time 9 day, read-out: TGI.
Data set [28] concerns B16-F10. Nature of the data set: Immunomodulatory activity in mouse B16-F10 cells implanted in C57BL/6J mouse assessed as percentage of CD3 positive CD8 positive cells in tumor at 10 mg/kg, ip administered once daily for 9 days in presence of NP19 by flow cytometric analysis (reference value: 0.44 %). It is filed as functional. As to conditions: time 9 day.
The subject of data set [29] is B16-F10. Nature of the data set: Immunomodulatory activity in mouse B16-F10 cells implanted in C57BL/6J mouse assessed as percentage of CD3 positive CD4 positive cells in tumor at 10 mg/kg, ip administered once daily for 9 days in presence of NP19 by flow cytometric analysis (reference value: 0.20 %). In kind it is functional. As to conditions: time 9 day.

Chain of Histone deacetylase 3 (O15379 whole entry): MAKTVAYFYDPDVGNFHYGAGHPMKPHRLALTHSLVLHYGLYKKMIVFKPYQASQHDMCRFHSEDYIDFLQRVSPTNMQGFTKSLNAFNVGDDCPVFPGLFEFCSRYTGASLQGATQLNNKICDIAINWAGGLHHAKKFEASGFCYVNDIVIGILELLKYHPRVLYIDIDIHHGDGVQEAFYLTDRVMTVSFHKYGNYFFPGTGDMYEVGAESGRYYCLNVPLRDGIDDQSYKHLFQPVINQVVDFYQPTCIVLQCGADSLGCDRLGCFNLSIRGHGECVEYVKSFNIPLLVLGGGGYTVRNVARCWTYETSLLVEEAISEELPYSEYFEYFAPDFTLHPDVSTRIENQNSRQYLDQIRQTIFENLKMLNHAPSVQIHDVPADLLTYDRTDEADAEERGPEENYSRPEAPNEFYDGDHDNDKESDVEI

For the compound `Cc1c(COc2cc(OCc3cccc(C#N)c3)c(CNC(C)(C)C(=O)O)cc2Cl)cccc1-c1ccccc1`, the IC50 was 0.0683 µM in data set [1]; 0.0683 µM in data set [2]; over 10 µM in data set [3]; over 50 µM in [4]; over 50 µM in [5]; over 50 µM in data set [6]. The IC50 in data set [7], in data set [8] and in data set [9] was over 50 µM in each case. Also, the inhibition result in data set [10] is “inactive”. The viability at 4 µM in data set [11] worked out at 93.6%. The Activity in data set [12] was 0.47%; in data set [13], 3.95%; in [14] it was 1.96%; in data set [15], 70.67%; in data set [16], 5.05%; in data set [17], 24.28%. Besides, the Activity result is “Non-toxic” in data set [20]; “Toxic” in [21]; “Toxic” in data set [22]; 2.68% in data set [23]; 3.34% in [24]; 0.78% in [25]. In addition, the Activity in [26] stood at 1.89%. Further, the inhibition in vivo at 20 mg/kg in [18] came to 30.8%; in data set [19] it was 37%.

Take `Nc1ccccc1NC(=O)c1ccc(CNC(=O)OCc2cccnc2)cc1` [ENTINOSTAT]: the IC50 is over 10 µM in [1]; 4.91 µM in [5]; 6.32 µM in data set [6]; 30.3 µM in data set [8]; 3.54 µM in data set [9]. In data set [11], the viability at 4 µM came out at 74.5%. Also, the Activity was found to be 7.43% in data set [12]; 12.8% in [13]; 5.25% in data set [14]; 87.62% in data set [15]; 6.59% in data set [16]; 5.79% in [17]. The Activity in data set [28] is 3.34%; in [29], 1.89%. The inhibition in vivo at 20 mg/kg in data set [27] turned out to be 37%.
